{"source": "patent US9642865B2", "about": "“Angiogenesis inhibitors” (THE JOHNS HOPKINS UNIVERSITY, priority 2004, dated 2017)", "key": {"[1]": {"test_system": "human umbilical vein endothelial cells (HUVEC)", "assay": "HUVEC proliferation, [3H]-thymidine incorporation", "assay_type": "cell-based", "conditions": "guanine 10 μM and 20 μM", "protocol": "(§1) 32,000 FDA drug approvals obtained by Freedom of Information Act requests were condensed to 3,400 unique drug formulations. Drugs were purchased from Sigma, Spectrum Chemicals, MP Biomedicals, The Johns Hopkins Hospital pharmacy, Biomol, and Tocris. 10 mM stock solutions were made using DMSO, water, or ethanol as solvents. Drugs were arrayed in 96-well plates and screened at a final concentration of 10 μM. Cells were incubated with drug for 36 h and proliferation was measured by pulsing with 1 μCi [^3H]-thymidine for 8 h followed by absorption onto glass filters and scintillation counting.\n(§2) IC50 measurements were carried out in triplicate, and analyzed using four parameter logarithmic analysis. Values are presented+/−the standard error of the mean. P-values were calculated using the Student's T-test.\nA library of 1,850 FDA-approved drugs and 600 drugs that entered the clinic via approval in a foreign country or phase II clinical trials was created. To discover new angiogenesis inhibitors among known drugs, the library was screened for inhibition of human umbilical vein endothelial cells (HUVEC) using [^3H]-thymidine incorporation. […] After eliminating known cytotoxic drugs such as taxol and colchicine or drugs that are restricted to topical use, several drugs remained. […]"}, "[2]": {"test_system": "Jurkat T cells", "assay": "Jurkat T-cell proliferation, [3H]-thymidine incorporation", "assay_type": "cell-based", "protocol": "as §1, §2\nMPA is an immunosuppressive drug widely used to prevent rejection of transplanted organs (Lipsky, J. J. (1996) Lancet 348, 1357-1359). The mechanism of action in the immune system is well established-MPA inhibits de novo biosynthesis of purines in T and B lymphocytes (Allison, A. C. & Eugui, E. M. (2000) Immunopharmacology 47, 85-118). […] Thus, a comparison of HUVEC to Jurkat T cells for sensitivity to MPA in the presence and absence of guanine was carried out. […] Addition of guanine at or above 20 μM rendered Jurkat T cells resistant to MPA. […]"}, "[3]": {"test_system": "HUVEC", "assay": "Cell cycle analysis of HUVEC", "assay_type": "cell-based, human", "conditions": "1 μM MPA + 50 μM guanosine", "text": "It has been shown that MPA causes cell cycle arrest in activated T and B lymphocytes at G1 (Laliberte, J., Yee, A., Xiong, Y. & Mitchell, B. S. (1998) Blood 91, 2896-2904). Therefore, the effect of MPA on endothelial cell cycle progression was examined."}}}
{"molecule": "COc1c(C)c2c(c(O)c1C/C=C(\\C)CCC(=O)O)C(=O)OC2", "note": "[MPA, 6-(4-hydroxy-6-methoxy-7-methyl-3-oxo-1,3-dihydroisobenzofuran-5-yl)-4-methyl-hex-4-enoic acid]", "values": [{"measurement": "effect of exogenous guanine on MPA inhibition of HUVEC proliferation", "setting": "[1]", "value": "partially reversed"}, {"measurement": "effect of exogenous guanine on MPA inhibition of Jurkat T-cell proliferation", "setting": "[2]; guanine 10 μM", "value": "unaffected"}, {"measurement": "effect of exogenous guanine on MPA inhibition of Jurkat T-cell proliferation", "setting": "[2]; guanine 20 μM and 50 μM", "value": "completely reversed"}, {"measurement": "effect of guanosine on the cell cycle effect of MPA", "setting": "[3]", "value": "completely reversed"}]}
